Measured values taken from patent publication US11666558B2, “Methods of treating intraocular pressure with activators of Tie-2” (EyePoint Pharmaceuticals, Inc., priority 2015, dated 2023).
Read-outs that look alike come from different tables or passages of the source.

Experiment: Ocular tissue concentrations (aqueous humor, vitreous humor, iris, retina, choroid, cornea) after topical ocular, subcutaneous and intravitreal administration
Type: in vivo, New Zealand White rabbits
Conditions: New Zealand White, rabbit; for concentration at 2 h / concentration at 4 h / concentration at 0.5 hr / concentration at 1 h: subcutaneous, 5 mg/kg/dose, subcutaneous 5 mg/kg/dose; for concentration at 6 h / concentration at 24 h / concentration at 48 h / concentration at 72 h: other: intravitreal, 2.5 mg/eye
Method: To measure the concentration of Compound 1 in plasma and ocular tissues following topical ocular, subcutaneous, and intravitreal administration, New Zealand White rabbits were administered Compound 1, and plasma and ocular samples were collected at pre-determined time points. Compound 1 formulations were prepared fresh on each day of dosing.
Ocular tissue samples from both eyes of each animal were collected and weights were recorded. Plasma and ocular tissue sample concentrations of Compound 1 were determined by LC-MS/MS.
New Zealand White rabbits weighing 2.5 to 3.5 kg were used on this study. Rabbits were housed one per cage. Animals were not fasted and only healthy animals with no ocular illness were used. Two rabbits per group were sacrificed at each of four ocular tissue sampling time points for a total of eight rabbits per group.
Animals were anesthetized for ocular (topical) and intravitreal dosing following the 12IA7 IACUC protocol. Each rabbit received a bolus dose of test formulation either via topical ocular administration 3 times daily on Days 1 and 2 (at 0, 6, and 12 hours), and once on Day 3 (at 0 hours) into both eyes; via intravitreal administration into both eyes once on Day 1 (at 0 hours); or via subcutaneous administration 2 times daily on Days 1 and 2 (at 0 and 8 hours) and once daily on Day 3 (at 0 hours). Doses were given within an approximately 1 hour window each day where applicable.
On Day 1, for intravitreal administration, or on Day 3, for topical ocular and subcutaneous administration, at the appropriate ocular tissue collection time points, animals were euthanized and both eyes were enucleated immediately. Following enucleation, each eye was rinsed with phosphate-buffered saline. Ocular tissue samples from both eyes of each animal were collected at predetermined time points and weights were recorded. All the samples were frozen immediately on dry ice, and stored at −60° C. to −80° C. pending bioanalysis.
An LC-MS/MS method was developed for the determination of Compound 1 in rabbit aqueous tissues (plasma, aqueous and vitreous humor) and solid ocular tissue samples. A pre-study standard curve was analyzed to determine the specificity, range, and lower limit of quantitation of the method. Plasma and tissue homogenate study samples were extracted and analyzed. All the samples were treated identically to the standards.
One eight-point standard curve was used in each analytical batch. To be accepted, each batch must have had at least five of eight standards with accuracy within ±20% of nominal, except at the lower limit of quantification (LLOQ), where ±25% was acceptable.
Concentration versus time data is plotted in FIGS. 3-16. All data are expressed as ng/g of the free drug. Samples that were below the limit of quantitation (0.2 ng/mL) were not used in the calculation of averages.

[1] = iris, TABLE 16: Iris, OD, free acid, Group 3, read-out: Iris Conc. (ng/g) OD
[2] = iris, TABLE 16: Iris, OS, free acid, Group 3, read-out: Iris Conc. (ng/g) OS
[3] = iris, TABLE 16: Iris, free acid, Group 3, read-out: Iris Average
[4] = retina homogenate, Retina homogenate, left eye, intravitreal 2.5 mg/eye (group 5), individual animals, read-out: Conc. (ng/mL) OS
[5] = retina homogenate, Retina homogenate, OD, sodium salt, intravitreal 2.5 mg/eye, Group 4, read-out: Retina Conc. (ng/mL) OD
[6] = retina homogenate, Retina homogenate, right eye, intravitreal 2.5 mg/eye (group 5), individual animals, read-out: Conc. (ng/mL) OD
[7] = retina homogenate, Retina homogenate, OS, sodium salt, intravitreal 2.5 mg/eye, Group 4, read-out: Retina Conc. (ng/mL) OS
[8] = retina homogenate, Retina homogenate, OD, sodium salt, Group 2, read-out: Retina Conc. (ng/mL) OD
[9] = retina homogenate, Retina homogenate, OS, sodium salt, Group 2, read-out: Retina Conc. (ng/mL) OS
[10] = retina homogenate, Retina homogenate, OD, free acid, Group 3, read-out: Retina Conc. (ng/mL) OD
[11] = retina homogenate, TABLE 16: Retina homogenate, OD, free acid, Group 3, read-out: Retina Conc. (ng/mL) OD
[12] = retina, Retina, OD, sodium salt, intravitreal 2.5 mg/eye, Group 4, read-out: Retina Conc. (ng/g) OD
[13] = retina, Retina, sodium salt, intravitreal 2.5 mg/eye, Group 4, read-out: Retina Avg.
[14] = retina, Retina, OS, sodium salt, intravitreal 2.5 mg/eye, Group 4, read-out: Retina Conc. (ng/g) OS

For COC(=O)N[C@@H](Cc1ccccc1)C(=O)N[C@@H](Cc1ccc(NS(=O)(=O)O)cc1)c1csc(-c2cccs2)n1 [Compound 1], the concentration at 2 h [1] was 30.5 ng/g, the concentration at 2 h [2] was 29.5 ng/g and the concentration at 2 h [3] was 27.6 ng/g. The concentration at 4 h [1] was 26.5 ng/g, the concentration at 4 h [2] was 16.9 ng/g and the concentration at 4 h [3] was 17.5 ng/g. For the same compound, the concentration at 6 h [4] was 154000 ng/mL, the concentration at 24 h [5] was 29200 ng/mL and the concentration at 24 h [6] was 130000 ng/mL. The concentration at 48 h [5] was 6490 ng/mL, the concentration at 48 h [7] was 6030 ng/mL and the concentration at 48 h [6] was 66700 ng/mL. For the same compound, the concentration at 72 h [5] was 750 ng/mL, the concentration at 72 h [7] was 370 ng/mL and the concentration at 72 h [4] was 10800 ng/mL. For the same compound, the concentration at 72 h [6] was 9890 ng/mL, the concentration at 0.5 hr [8] was 2.77 ng/mL and the concentration at 0.5 hr [9] was 4.36 ng/mL. For the same compound, the concentration at 1 h [10] was 0.942 ng/mL, the concentration at 1 h [8] was 2.04 ng/mL and the concentration at 1 h (retina homogenate, Retina homogenate, OS, free acid, Group 3, read-out: Retina Conc. (ng/mL) OS) was 0.63 ng/mL. The concentration at 1 h [9] was 3.93 ng/mL, the concentration at 2 h [10] was 0.574 ng/mL and the concentration at 2 h [8] was 1.36 ng/mL. It also gave a concentration at 2 h [9] of 1.62 ng/mL, a concentration at 4 h [8] of 1.79 ng/mL and a concentration at 1 h [11] of 0.942 ng/mL. The concentration at 1 h (retina homogenate, TABLE 16: Retina homogenate, OS, free acid, Group 3, read-out: Retina Conc. (ng/mL) OS) was 0.63 ng/mL, the concentration at 2 h [11] was 0.574 ng/mL and the concentration at 6 h [12] was 431000 ng/g. For the same compound, the concentration at 6 h [13] was 774000 ng/g, the concentration at 24 h [12] was 321000 ng/g and the concentration at 24 h [14] was 308000 ng/g. The concentration at 24 h [13] was 356000 ng/g, the concentration at 48 h [12] was 71400 ng/g and the concentration at 48 h [14] was 66300 ng/g. It also gave a concentration at 48 h (retina, Retina, average, intravitreal 2.5 mg/eye (group 5), read-out: Avg.) of 680000 ng/g, a concentration at 48 h (retina, Retina, left eye, intravitreal 2.5 mg/eye (group 5), individual animals, read-out: Conc. (ng/g) OS) of 154000 ng/g and a concentration at 48 h (retina, Retina, right eye, intravitreal 2.5 mg/eye (group 5), individual animals, read-out: Conc. (ng/g) OD) of 734000 ng/g.
